The values below come from publication PMC4063723, “Mechanisms of Pyrethroid Resistance in the Dengue Mosquito Vector, Aedes aegypti: Target Site Insensitivity, Penetration, and Metabolism” (PLoS Neglected Tropical Diseases, 2014).

Molecules are shown by their SMILES. Numbering of substitutions follows the chain as printed.

Holding throughout (assay): HPTLC autoradiography of metabolites, insect-cell microsomes
Holding throughout (type): biochemical
What all share (settings): NADPH, pH 7.5, 25 C, co-expressed reductase and b5; labelled compound; product 4'-HO-permethrin

One test addresses T1, CYP9M6v1 (Aedes aegypti, UniProt X5I1U9).
T1 construct: full-length cDNA from SP strain (533 residues), baculovirus/Sf9 (expressSF+) microsomes, co-expressed with A. aegypti P450 reductase and cytochrome b5; with NADPH--cytochrome P450 reductase; Cytochrome b5
T1 sequence (X5I1U9 1-533): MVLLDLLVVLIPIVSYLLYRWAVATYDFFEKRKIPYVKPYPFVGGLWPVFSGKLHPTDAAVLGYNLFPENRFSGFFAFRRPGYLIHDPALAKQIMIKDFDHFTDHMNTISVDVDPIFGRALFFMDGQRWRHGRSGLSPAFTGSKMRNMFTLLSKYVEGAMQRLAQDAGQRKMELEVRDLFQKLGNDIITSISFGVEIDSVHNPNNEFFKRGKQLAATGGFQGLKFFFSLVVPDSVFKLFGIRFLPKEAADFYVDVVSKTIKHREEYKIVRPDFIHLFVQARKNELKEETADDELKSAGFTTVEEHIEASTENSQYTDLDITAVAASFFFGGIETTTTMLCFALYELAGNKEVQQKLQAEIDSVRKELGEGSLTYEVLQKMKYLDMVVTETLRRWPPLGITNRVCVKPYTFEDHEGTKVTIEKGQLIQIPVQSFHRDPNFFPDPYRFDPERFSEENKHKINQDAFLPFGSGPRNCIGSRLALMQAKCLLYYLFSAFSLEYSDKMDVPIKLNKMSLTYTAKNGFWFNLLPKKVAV

Another test deals with T2, CYP9M6v2 (Aedes aegypti, UniProt X5HYQ8).
T2 construct: full-length cDNA from SP strain (533 residues), baculovirus/Sf9 (expressSF+) microsomes, co-expressed with A. aegypti P450 reductase and cytochrome b5; with NADPH--cytochrome P450 reductase; Cytochrome b5
T2 sequence (X5HYQ8 1-533): T1 sequence (X5I1U9 1-533) with R170G, V176I, G348E, G370D, V376M, L527V, K530R

The target of the next test is T3, CYP6BB2 (Aedes aegypti, UniProt Q16F58).
T3 construct: gene 5565578; full-length cDNA from SP strain, baculovirus/Sf9 (expressSF+) microsomes, co-expressed with A. aegypti P450 reductase and cytochrome b5; with NADPH--cytochrome P450 reductase; Cytochrome b5
T3 sequence (Q16F58 1-507): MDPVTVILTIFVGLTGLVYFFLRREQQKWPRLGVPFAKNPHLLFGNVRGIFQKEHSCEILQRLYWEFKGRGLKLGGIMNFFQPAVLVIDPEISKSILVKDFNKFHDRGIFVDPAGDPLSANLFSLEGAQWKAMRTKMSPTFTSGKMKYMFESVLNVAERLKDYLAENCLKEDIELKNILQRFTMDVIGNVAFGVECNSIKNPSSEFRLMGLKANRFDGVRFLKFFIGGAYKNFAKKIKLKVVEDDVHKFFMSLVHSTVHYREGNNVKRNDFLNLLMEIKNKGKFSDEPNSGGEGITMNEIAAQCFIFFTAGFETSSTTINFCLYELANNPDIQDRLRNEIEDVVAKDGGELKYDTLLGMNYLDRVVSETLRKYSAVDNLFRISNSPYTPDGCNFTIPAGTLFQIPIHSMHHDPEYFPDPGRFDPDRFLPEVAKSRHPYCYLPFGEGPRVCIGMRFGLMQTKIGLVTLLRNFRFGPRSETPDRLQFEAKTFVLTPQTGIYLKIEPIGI

As for `CC1(C)C(C=C(Cl)Cl)C1C(=O)OCc1cccc(Oc2ccccc2)c1` (stereo not drawn) [[14C]-(1RS)-trans-permethrin], the “HPTLC autoradiography of metabolites, insect-cell microsomes” value at CYP9M6v1 is “Both CYP9M6v1 and CYP9M6v2 demonstrated relatively low but consistent permethrin metabolism”; at CYP9M6v2, “Both CYP9M6v1 and CYP9M6v2 demonstrated relatively low but consistent permethrin metabolism”; on CYP6BB2, “CYP6BB2 exhibited strong metabolic activity for permethrin”.
